Measurements reported in patent publication US20040038888A1 (priority 2002, published 2004).

Tests used:
[1] = test system: CREB phosphorylation; assay: Western blot of phosphorylated CREB, differentiating adult mouse NSC, adherent; type: cell-based; settings: 10 nM PACAP
Experimental: Adult mouse NSC and aHNSC were prepared and cultured as stated in Example 5 (Method A & B) and Example 2 (Method A), respectively. Cultures were exposed to 10 nM PACAP for the times indicated. After treatment, the cells were lysed in lysis buffer, as shown in Patrone et al. (Patrone, Andersson et al. 1999). DNA content was detemined by the use of a Pico Green-kit for ds DNA quantitation of cell extracts. Total protein measurements were performed with Nano Orange-kit. Equal amounts of protein were run on a gradient gel 4-12% Bis-Tris gel (NuPage/Mops buffer) and transferred to a nitrocellulose membrane. Western blot was performed and phosphorylated CREB was labelled using a rabbit anti phospho-CREB (1:1000, Upstate biotechnology), a secondary anti rabbit HRP antibodies (1:10.000). Phosphorylated CREB protein bands (43 kD) were detected using the ECL-kit (Amersham).

[2] = test system: differentiating neural stem cells; assay: Thymidine incorporation, differentiating adult mouse NSC, adherent culture; type: cell-based; settings: adherent conditions, 3 days, relative to controls
Experimental: To determine thymidine incorporation into DNA, mouse neurospheres, cultured as described above, from passage 2, were seeded in DMEM/F12 supplemented with B27 and 1% Fetal Calf Serum into a 96-well plate coated with poly-D-lysine as single cells (30000 cells/well) and cultured over-night. The following day the medium was replaced with Neurosphere medium and PACAP added to the concentrations indicated for a further 3 days. 3H-thymidine, 10 uCi/ml, was present the last 24 hours. Cells were harvested on to a filter paper and radioactivity was measured. 3H-thymidine (6,7 Ci/mmol) was from PerkinElmer.

[3] = test system: hippocampal NSC/neural progenitors cells; assay: PACAP/BrdU infusion, BrdU labelling of the dentate gyrus; type: in vivo, mouse; settings: 600 nM pump concentration, 0.5 μl/hr into the lateral ventricle, 3.5 days, relative to vehicle
Experimental: 10 week old male mice (C57B1/2), maintained on a 12 hr light/dark cycle with food and water ad libidum, were infused in the right lateral ventricle with PACAP38 (Bachem), using a Alzet pump (1007D), for 3,5 days or 7 days at a daily dose of 31 ng/day (600 nM PACAP pump concentration infused at a rate of 0.5 μl/hr). Bromodeoxyuridine (BrdU) (50 mg/ml) was also included in the infusion vehicle (0.9% saline containing 1 mg/ml mouse serum albumin (Sigma)) to enable measurement of proliferation by quantitation of BrdU incorporation in the DNA. The group of infused with either PACAP/BrdU or vehicle/BrdU for 3,5 days and sacrificed at this time point. […]
Brains were cut into 14-μm coronal sections using a cryostat-microtome. […] After 1 hour of washing, the BrdU-antibody complex was detected using 0.05% diaminobenzidine with 0.01% H2O2, and counterstained with Hematoxylin. […]
For all BrdU labelling experiments, three to six sections per animal were analysed. […] The number of BrdU-labelled cells per area of dentate granule cell layer was counted manually. […] BrdU-positive cells were counted along 2×250 micrometer strips of the lateral ventricle wall (see FIG. 18). Area measurements of both the dentate granule cell layer and the “counted” region of the lateral ventricle wall (including the ependymal cell layer and subventricular zone) were made from each slide used for the cell counts. […]

[4] = test system: primary adult NSC; assay: Self renewal and multipotency assay; type: cell-based, mouse; settings: PACAP 100 nM
Experimental: Anterior lateral wall of the lateral ventricle was dissociated as described in Example 2 (Method A), and the cells resuspended in Neurosphere medium without EGF. The cell suspension was divided into a 24-well plate in triplicate and PACAP added to a final concentration of 100 nM. After 7 days, the neurospheres were split into single cells, as described in Example 1 (Method A), but in the absence of EGF. The cells were replated as single cells, PACAP added to 100 nM and incubated a further 7 days. The cells were passaged one further time, and plated as single cells in Neurosphere medium supplemented with 1% Fetal Calf Serum (Gibco) and 100 nM PACAP (Bachem) onto poly-D-lysine plates. The cells were incubated over-night in which time they adhered to the poly-D-lysine plates and the medium was changed to Neurosphere medium supplemented with 100 nM PACAP38, but absent of Fetal Calf Serum. The cells were cultured for a further 3 days, after which they were washed twice in PBS (Gibco) and fixed for 15 min at room temperature with 4% Formaldehyde (Sigma) and permeabilised for 20 minutes at room temperature in 0,1% Triton X-100 (Sigma) in PBS. After fixation and permeabilisation the cells were labelled with mouse monoclonal anti β-III Tubulin (1:1000 Promega), rabbit anti GFAP (1:500 Sigma), and mouse anti CNPase (1:500 Sigma). Primary antibodies were visualized with anti mouse Texas-Red and anti rabbit FITC (1:500 Vector Laboratories). All antibodies were diluted in PBS with 0,1% Triton X-l00.

“pituitary adenylate cyclase-activating polypeptide [PACAP]” was tested, and the CREB phosphorylation ([1]; 15 min exposure) was “upregulated”, the CREB phosphorylation ([1]; 240 min) was “slightly above basal levels” and the “incorporation of tritiated thymidine” value [2] was “No significant difference”. For the same substance, the “proliferation in the ipsilateral dentate gyrus (BrdU positive cells/mm^2)” value [3] was “significant increase in proliferation”, the “multiply-passaged neurospheres compared to EGF-treated neurospheres” value [4] was “no relevant differences” and the “self-renewal (secondary and tertiary neurospheres)” value ([4]; absence of other mitogens) was “retained their ability to self-renew”. The “multipotentiality (β-III Tubulin, GFAP, CNPase immunoreactivity)” value ([4]; spontaneous differentiation on poly-D-lysine) was “retaining the potential of generating all the cells of the CNS”.
